“And” between values parts separate entries of the source, which are not always exact repeats. Identical values can stand only once. “Also recorded” adds a separate entry of the source.
What was measured:
[1] = Storage stability of labeling precursor; format: physicochemical; settings: solid, stored at 4 °C
[2] = tested on: PSMA+ LNCaP tumor; assay: Dynamic PET imaging in LNCaP tumor-bearing BALB/c nude mice; format: in vivo, mouse
Protocol: PET imaging experiments were carried out in LNCaP and PC3 tumor-bearing Balb/c nude mice (Charles River Laboratories, Quebec, Canada). Male Balb/c nude mice were housed under standard conditions with free access to standard food and tap water. LNCaP and PC3 cells (5 × 10^6 cells in 100 μL of PBS) were injected into the upper left flank of the mice (20–24 g). Before injecting LNCaP cells, the mice received a 1.0-mg/pellet containing testosterone in a 60-day release preparation (Innovative Research of America, Sarasota, FL, USA). The pellet was implanted subcutaneously into the upper right flank in order to provide a constant level of testosterone needed by the androgen receptor positive LNCaP cells. Tumors reached sizes of approximately 1 cm^3 which were suitable for all in vivo experiments. General anesthesia of tumor-bearing mice was induced with inhalation of isoflurane in 40 % oxygen/60 % nitrogen (gas flow = […]), and the mice were subsequently fixed in prone position. The body temperature was kept constant at 37 °C for the entire experiment. The mice were positioned in a prone position into the center of the field of view. A transmission scan for attenuation correction was not acquired. […] For blocking studies, the animals were pre-dosed with 300 μg of DCFPyL in 50 μL saline about 10 min prior to radiotracer injection. Data acquisition was performed over 60 min in a 3D list mode. The dynamic list mode data were sorted into sinograms with 53 time frames (10 × 2, 8 × 5, 6 × 10, 6 × 20, 8 × 60, 10 × 120, 5 × 300 s). The frames were reconstructed using maximum a posteriori (MAP) as reconstruction mode. The pixel size was 0.085 × 0.085 × 0.121 mm^3 (256 × 256 × 63), and the resolution in the center of the field of view was 1.8 mm. No correction for partial volume effects was applied. The image files were processed using the ROVER v 2.0.51 software (ABX GmbH, Radeberg, Germany). Masks defining 3D regions of interest (ROI) were set and the ROIs were defined by thresholding. Mean standardized uptake values [SUV]mean = (activity/mL tissue)/(injected activity/body weight), mL/g, were calculated for each ROI. Time-activity curves (TACs) were generated for the dynamic scans only. All semi-quantified PET data are presented as means ± SEM. Statistical difference for the blocking study was tested by unpaired Student’s t test and was considered significant for P < 0.05.

[3] = tested on: PSMA− PC3 cells; assay: Cell-specific internalization experiment in PC3 cells; format: cell-based; settings: 60 min, 37 °C
Protocol: (§1) 10^5 LNCaP or PC3 cells were seeded in poly-D-lysine-coated 12-well plates 24–48 h before the assay so that cells could reach 95 % confluency. The medium was removed 1 h before the assay, and the cells were rinsed twice with PBS. After the addition of Krebs buffer (1 mL) to each well, the cells were incubated at 37 °C. […] Cellular uptake was stopped by removing incubation media from the cells and washing the wells twice with ice-cold PBS buffer (1 mL). Surface-bound radioactivity was removed from the cells through incubating the cells twice with 0.5 mL glycine-HCl in PBS (50 mM, pH 2.5) for 5 min at 37 °C. Cells were washed again with ice-cold PBS before the addition of radio-immunoprecipitation assay (RIPA) buffer (400 μL) to lyse the cells. Cells were returned into the incubator for 10 min, and cell lysates were collected for counting. Radioactivity of surface-bound and internalized fraction was measured in a WIZARD2 Automatic gamma counter (Perkin Elmer, Waltham, MA, USA). Total protein concentration in the samples was determined by the bicinchoninic acid method (BCA; Pierce, Thermo Scientific 23227) using bovine serum albumin (800, 600, 400, 300, 200, 100, 50 μg/mL, blank) as protein standard. Data are expressed as percent of total uptake per 1 mg protein (% of total uptake/mg protein).

[4] = tested on: PSMA+ LNCaP cells; assay: Cell-specific internalization experiment in LNCaP cells; format: cell-based
Protocol: as §1

[5] = tested on: PSMA− PC3 tumor; assay: Dynamic PET imaging in PC3 tumor-bearing BALB/c nude mice; format: in vivo, mouse; settings: 60 min p.i.
Protocol: PET imaging experiments were carried out in LNCaP and PC3 tumor-bearing Balb/c nude mice (Charles River Laboratories, Quebec, Canada). Male Balb/c nude mice were housed under standard conditions with free access to standard food and tap water. LNCaP and PC3 cells (5 × 10^6 cells in 100 μL of PBS) were injected into the upper left flank of the mice (20–24 g). Before injecting LNCaP cells, the mice received a 1.0-mg/pellet containing testosterone in a 60-day release preparation (Innovative Research of America, Sarasota, FL, USA). The pellet was implanted subcutaneously into the upper right flank in order to provide a constant level of testosterone needed by the androgen receptor positive LNCaP cells. Tumors reached sizes of approximately 1 cm^3 which were suitable for all in vivo experiments. General anesthesia of tumor-bearing mice was induced with inhalation of isoflurane in 40 % oxygen/60 % nitrogen (gas flow = […]), and the mice were subsequently fixed in prone position. The body temperature was kept constant at 37 °C for the entire experiment. The mice were positioned in a prone position into the center of the field of view. A transmission scan for attenuation correction was not acquired. […] Mean standardized uptake values [SUV]mean = (activity/mL tissue)/(injected activity/body weight), mL/g, were calculated for each ROI. […] All semi-quantified PET data are presented as means ± SEM. […]

[6] = tested on: PSMA− PC3 tumor; assay: Tracer kinetic analysis (reversible two-tissue compartmental model), PC3 tumors; format: in vivo, mouse
Protocol: (§2) Tracer kinetic analysis was performed using a two-tissue compartmental model using dynamically acquired PET imaging data. Full details on tracer kinetic analysis are given in the Additional file 1. […] Tracer kinetic analysis was carried out with PET imaging data acquired dynamically from PSMA+ LNCaP and PSMA− PC3 tumor-bearing mice (see Fig. 7). Four kinetic parameters (K1, k2, k3, k4) describing the flow of the radiotracer from the blood to the tissue (K1) and from the tissue into the blood (k2), binding of the radiotracer to the tissue (k3) and dissociation from the tissue (k4), were calculated. The analysis was performed by fitting the measured TACs with a two-exponential model of the general form as described, e.g., by van den Hoff (Additional file 1: Figure S2). Tracer kinetic analysis was performed using a two-tissue compartmental model using dynamically acquired PET imaging data. A volume of interest (VOI) was defined for the tumor using the Rover software (ABX GmbH, Dresden, Germany) by applying a threshold of 50% SUVmax within an ellipsoid mask around the tumor on an image representing the average of the last 40 min of the acquisition (i.e. excluding the tracer uptake phase). Image derived input functions were obtained from regions around the heart, defined by the injected blood bolus visible in the first few time fames of the dynamic acquisitions, using a threshold of 75% of SUVmax in that region. Four kinetic parameters (K1, k2, k3, k4) and the fractional blood volume (fbv) which accounts for the non-zero vascular space within the tumor ROI, describe the model. The analysis was carried out by fitting the measured tumor time-activity curves (TACs) with a two-exponential model of the general form: The fit of equation [1] to the experimentally acquired tumor TACs was implemented in Matlab (The Mathworks, Inc., v. R2014b), utilizing a Nelder-Mead simplex direct search. The fit was governed by the minimization of the sum over all time points of square differences between the measured values and the model prediction (Figure S2).

[7] = Stability of the product in saline (quality control); format: physicochemical; settings: up to 4 h
Protocol: Radio-TLC analysis on silica gel plates gave a Rf value of 0.6 in 95 % CH3CN/H2O (Additional file 1: Figure S4).
[^18F]fluoride. Radio-TLC analysis on silica gel plates gave a Rf value of 0.6 in 95 % CH3CN/H2O (Additional file 1: Figure S4), and the product was stable (>95 %) in saline of up to 4 h.

[8] = Radiometabolite analysis / in vivo metabolic stability in BALB/c mice; set-up: species or system mouse
Protocol: Venous blood samples were collected at 5, 15, 30, and 60 min p.i. via the mouse tail vein and further processed. Blood cells were separated by centrifugation (13,000 rpm × 5 min). Precipitation of proteins in the supernatant was achieved by the addition of 2 volume parts of MeOH, and the samples were centrifuged again (13,000 rpm × 5 min). Fractions of blood cells, proteins, and plasma were measured in a Wizard gamma counter to determine radioactivity per sample. The clear plasma supernatant was injected onto a Shimadzu HPLC system.
The samples were analyzed using a Phenomenex Luna 10u C18 [2] 100 A, 250 × 4.6 mm column at a constant flow rate of 1 mL min^−1 and the following gradient with water/0.2 % TFA as solvent A and CH3CN as solvent B: 0–7.5 min 20 % B, 7.5–15 min gradient to 90 % B, 15–20 min 90 % B.

[9] = tested on: PSMA+ LNCaP tumor; assay: Tracer kinetic analysis (reversible two-tissue compartmental model), LNCaP tumors; format: in vivo, mouse
Protocol: as §2

[10] = LNCaP, two-tissue compartmental model

CC(C)(C)OC(=O)CCC(NC(=O)NC(CCCCNC(=O)c1ccc([N+](C)(C)C)nc1)C(=O)OC(C)(C)C)C(=O)OC(C)(C)C (centres unmarked) [Compound 9]
storage time without significant decomposition [1]: at least 3 months

O=C(O)CC[C@H](NC(=O)N[C@@H](CCCCNC(=O)c1ccc(F)nc1)C(=O)O)C(=O)O [DCFPyL, reference compound]
reduction of [18F]DCFPyL radioactivity uptake in LNCaP tumor upon pretreatment with DCFPyL ([2]; 60 min p.i., 300 μg DCFPyL before radiotracer): 80%

O=C(O)CCC(NC(=O)NC(CCCCNC(=O)c1ccc([18F])nc1)C(=O)O)C(=O)O [[^18F]DCFPyL, (S)-2-[3-((S)-1-carboxy-5-[3-(6-fluoropyridine)carbonyl)amino)pentyl)ureido]-pentanedioic acid]
SUV5min, radioactivity uptake in LNCaP tumors ([2]; 5 min p.i., dynamic PET): 0.95
SUV60min, muscle as reference tissue ([2]; 60 min p.i.): 0.06
SUV60min, radioactivity uptake in LNCaP tumor (control) ([2]; 60 min p.i., dynamic PET): 1.1 and 1.1 ± 0.1
SUV60min, LNCaP tumor, blocked ([2]; 60 min p.i., pre-dosed with 300 μg nonradioactive DCFPyL): 0.22 and 0.2 ± 0.05
radioactivity uptake, internalized fraction [3]: 0.76 ± 0.05 % of total uptake/mg protein
radioactivity uptake, membrane-bound fraction [3]: 4.30 ± 0.40 % of total uptake/mg protein
radioactivity uptake, internalized fraction ([4]; 60 min, 37 °C): 35.05 ± 0.69 % of total uptake/mg protein
radioactivity uptake, membrane-bound fraction ([4]; 60 min, 37 °C): 45.47 ± 1.01 % of total uptake/mg protein
fraction of internalized radioactivity ([4]; 60 min incubation): 44%
SUV60min, radioactivity uptake in PC3 tumors [5]: 0.11 and 0.1
coefficient k3/(k3 + k2), fraction entering the second compartment [6]: 0.058
k3 (binding of radiotracer to tissue) [6]: 0.008
net delivery K1/k2 [6]: 0.49
retention k3/k4 [6]: 0.13
stability of product in saline [7]: > 95%
radiometabolites in urine (radio-HPLC) ([8]; 60 min p.i.): contained only parent compound; also recorded: no radiometabolites were detected
binding to plasma proteins (distribution in blood) ([8]; n = 3): low binding of the radiotracer to blood cells and plasma proteins; also recorded: only minimal binding to plasma proteins
radiometabolites in plasma (radio-HPLC) ([8]; over 60 min p.i.): no radiometabolites were detected
coefficient k3/(k3 + k2), fraction entering the second compartment ([9]; LNCaP tumors): 0.314
retention k3/k4 ([9]; LNCaP tumors): 20.5
K1 (flow of radiotracer from blood to tissue) [9, 10]: 0.12 min⁻¹
k2 (flow from tissue into blood) [9, 10]: 0.18 min⁻¹
k3 (binding of radiotracer to tissue) [9, 10]: 0.08 min⁻¹ and 0.082 min⁻¹
k4 (dissociation from tissue) [9, 10]: 0.004 min⁻¹
